Test results from patent US4155912A, “2-Methylpenem-3-carboxylic acid antibiotics” (Bristol-Myers Company, priority 1977, dated 1979).
≈ marks a conversion by molar mass, not a printed value. Where two headings read alike, the source gives them in different places. One block for each compound: values may come before it.

Key:
bacteria [1] = details: as reported in literature; cited from earlier work
β-lactamases = details: as reported in literature; cited from earlier work
Ps. aeruginosa A-21213 = assay: MIC by tube dilution, Ps. aeruginosa A-21213; type: cell-based; details: 37° C.; for MIC: Pseudomonas aeruginosa, A21213, Ps. aeruginosa A-21213, overnight
Procedure: (§1) The in vitro minimum inhibitory concentrations (MIC) of d,l-2-methylpenem-3-carboxylic acid, (+)-2-methylpenem-3-carboxylic acid and (-)-2-methylpenem-3-carboxylic acid were determined for a number of microorganisms as determined by overnight incubation at 37° C. by tube dilution. Ampicillin was included as a comparison compound.

Pr. morganii A-15153 = assay: MIC by tube dilution, Pr. morganii A-15153; type: cell-based; details: 37° C.
Procedure: as §1

Ent. cloacae A-9659 = assay: MIC by tube dilution, Ent. cloacae A-9659; type: cell-based; details: 37° C.
Procedure: as §1

Str. faecalis A-20688 = assay: MIC by tube dilution, Str. faecalis A-20688; type: cell-based; details: 37° C.
Procedure: as §1

E. coli A-15119 = assay: MIC by tube dilution, E. coli A-15119; type: cell-based; details: 37° C.
Procedure: as §1

K. pneumoniae A-20468 = assay: MIC by tube dilution, K. pneumoniae A-20468; type: cell-based; details: 37° C.; for MIC: Klebsiella pneumoniae, A20468, overnight
Procedure: as §1

Ps. aeruginosa A-9843A = assay: MIC by tube dilution, Ps. aeruginosa A-9843A; type: cell-based; details: overnight, 37° C.
Procedure: as §1

Ser. marcescens A-20019 = assay: MIC by tube dilution, Ser. marcescens A-20019; type: cell-based; details: 37° C.
Procedure: as §1

Ent. cloacae A-9656 = assay: MIC by tube dilution, Ent. cloacae A-9656; type: cell-based; details: 37° C.
Procedure: as §1

in vivo = details: mouse, im, 40 mg/kg
[2] = test system: Staph. aureus (Meth-Res) A-15097; assay: MIC by tube dilution, Staph. aureus (Meth-Res) A-15097; type: cell-based; details: overnight, 37° C.
Procedure: as §1

Staph. aureus A-9537 = assay: MIC by tube dilution, Staph. aureus A-9537; type: cell-based; details: Staphylococcus aureus, 37° C.
Procedure: as §1

E. coli A-20341-1 = assay: MIC by tube dilution, E. coli A-20341-1; type: cell-based; details: 37° C.
Procedure: as §1

Pr. mirabilis A-9900 = assay: MIC by tube dilution, Pr. mirabilis A-9900; type: cell-based; details: 37° C.
Procedure: as §1

Pr. rettgeri A-21205 = assay: MIC by tube dilution, Pr. rettgeri A-21205; type: cell-based; details: 37° C.; for M.I.C.: Pr. rettgeri A-21205, overnight
Procedure: as §1

[3] = Mouse blood levels after oral administration; type: in vivo
Text: Blood level values represent averages of 4 experiments for
d,l-2-methylpenem-3-carboxylic acid, 3 for ampicillin and 1 for
Assay Organism: Bacillus megaterium A-9737

Pr. vulgaris A-9716 = assay: MIC by tube dilution, Pr. vulgaris A-9716; type: cell-based; details: 37° C.
Procedure: as §1

Str. pyogenes A-9604 = assay: MIC by tube dilution, Str. pyogenes A-9604; type: cell-based; details: Streptococcus pyogenes, A9604, Str. pyogenes A-9604, overnight, 37° C.
Procedure: as §1

[4] = test system: Staph. aureus (Pen-Res) A-9606; assay: MIC by tube dilution, Staph. aureus (Pen-Res) A-9606; type: cell-based; details: overnight, 37° C.
Procedure: as §1

Str. pneumoniae A-9585 = assay: MIC by tube dilution, Str. pneumoniae A-9585; type: cell-based; details: Streptococcus pneumoniae, A9585, Str. pneumoniae A-9585, overnight, 37° C.
Procedure: as §1

K. pneumoniae A-15130 = assay: MIC by tube dilution, K. pneumoniae A-15130; type: cell-based; details: 37° C.
Procedure: as §1

bacteria [5] = details: as reported in literature; cited from earlier work; remark: listed apart in the source
[6] = blood, oral, 100 mg./kg., 5 minutes after administration, read-out: Blood Level
[7] = blood, oral, 100 mg./kg., 10 minutes after administration, read-out: Blood Level
[8] = blood, oral, 100 mg./kg., 15 minutes after administration, read-out: Blood Level
[9] = blood, oral, 100 mg./kg., 30 minutes after administration, read-out: Blood Level
[10] = blood, oral, 100 mg./kg., 45 minutes after administration, read-out: Blood Level

SMILES: CC(=O)NC=C[S+]([O-])C1=C(C(=O)O)N2C(=O)C(C(C)OS(=O)(=O)O)C2C1 (stereo not drawn)
antibacterial activity (bacteria [1]): some antibacterial activity
β-lactamase inhibition (β-lactamases): β-lactamase inhibitor

SMILES: CC1=C(C(=O)O)N2C(=O)C[C@H]2S1 (racemic) [d,l-2-methylpenem-3-carboxylic acid, 2-Methylpenem-3-carboxylic Acid]
MIC (Ps. aeruginosa A-21213): > 125 µg/mL
MIC (Pr. morganii A-15153; Morganella morganii, A15153, Pr. morganii A-15153, overnight): 16 µg/mL (≈ 86.4 µM)
MIC (Ent. cloacae A-9659; Enterobacter cloacae, A9659, Ent. cloacae A-9659, overnight): 16 µg/mL (≈ 86.4 µM)
MIC (Str. faecalis A-20688; Enterococcus faecalis, A20688, Str. faecalis A-20688, overnight): 32 µg/mL (≈ 173 µM)
MIC (E. coli A-15119; Escherichia coli, A15119, E. coli A-15119, overnight): 8 µg/mL (≈ 43.2 µM)
MIC (K. pneumoniae A-20468): > 125 µg/mL
MIC (Ps. aeruginosa A-9843A; Pseudomonas aeruginosa, A9843A): 125 µg/mL (≈ 675 µM)
MIC (Ser. marcescens A-20019; Serratia marcescens, A20019, Ser. marcescens A-20019, overnight): 8 µg/mL (≈ 43.2 µM)
MIC (Ent. cloacae A-9656; Enterobacter cloacae, A9656, Ent. cloacae A-9656, overnight): 16 µg/mL (≈ 86.4 µM)
concentration at 5 min (in vivo): 27100 ng/mL
concentration at 0.25 h (in vivo): 12700 ng/mL
concentration at 0.5 h (in vivo): < 5900 ng/mL
concentration at 0.75 h (in vivo): < 5900 ng/mL
concentration at 1 h (in vivo): < 5900 ng/mL
MIC ([2]; Staphylococcus aureus): 1 µg/mL (≈ 5.4 µM)
MIC (Staph. aureus A-9537; A9537, Staph. aureus A-9537, overnight): 0.13 µg/mL (≈ 0.702 µM)
MIC (Staph. aureus A-9537; A9537, Staph. aureus A-9537 and 50% serum, overnight): 8 µg/mL (≈ 43.2 µM)
MIC (E. coli A-20341-1; Escherichia coli, A203411, E. coli A-20341-1, overnight): 16 µg/mL (≈ 86.4 µM)
MIC (Pr. mirabilis A-9900; Proteus mirabilis, A9900, Pr. mirabilis A-9900, overnight): 8 µg/mL (≈ 43.2 µM)
MIC (Pr. rettgeri A-21205; Providencia rettgeri, A21205, Pr. rettgeri A-21205, overnight): 4 µg/mL (≈ 21.6 µM)
concentration at 5 min [3, 6]: 28000 ng/mL
concentration at 10 min [3, 7]: 25100 ng/mL
concentration at 0.25 h [3, 8]: 18400 ng/mL
concentration at 0.5 h [3, 9]: < 5600 ng/mL
concentration at 0.75 h [3, 10]: < 3900 ng/mL
concentration at 1 h ([3]; blood, oral, 100 mg./kg., 60 minutes after administration, read-out: Blood Level): < 4300 ng/mL
concentration at 2 h ([3]; blood, oral, 100 mg./kg., 120 minutes after administration, read-out: Blood Level): < 4300 ng/mL
MIC (Pr. vulgaris A-9716; Proteus vulgaris, A9716, Pr. vulgaris A-9716, overnight): 8 µg/mL (≈ 43.2 µM)
MIC (Str. pyogenes A-9604): 0.13 µg/mL (≈ 0.702 µM)
MIC ([4]; Staphylococcus aureus): 1 µg/mL (≈ 5.4 µM)
MIC (Str. pneumoniae A-9585): 0.03 µg/mL (≈ 0.162 µM)
MIC (K. pneumoniae A-15130; Klebsiella pneumoniae, A15130, K. pneumoniae A-15130, overnight): 16 µg/mL (≈ 86.4 µM)

concentration at 5 min [3, 6]: 1500 ng/mL
concentration at 10 min [3, 7]: 7100 ng/mL
concentration at 0.25 h [3, 8]: 9900 ng/mL
concentration at 0.5 h [3, 9]: 14000 ng/mL
concentration at 0.75 h [3, 10]: 15500 ng/mL
SMILES: CC1(C)S[C@@H]2[C@H](NC(=O)[C@H](N)c3ccc(O)cc3)C(=O)N2[C@H]1C(=O)O [Amoxicillin]

SMILES: CC1(C)S[C@@H]2[C@H](NC(=O)[C@H](N)c3ccccc3)C(=O)N2[C@H]1C(=O)O [Ampicillin]
concentration at 5 min (in vivo): 20800 ng/mL
concentration at 0.25 h (in vivo): 22800 ng/mL
concentration at 0.5 h (in vivo): 20000 ng/mL
concentration at 0.75 h (in vivo): 11800 ng/mL
concentration at 1 h (in vivo): 7100 ng/mL
concentration at 5 min ([3]; in vivo, po, 100 mg/kg): 2100 ng/mL
concentration at 10 min ([3]; in vivo, po, 100 mg/kg): 3900 ng/mL
concentration at 0.25 h ([3]; in vivo, po, 100 mg/kg): 6100 ng/mL
concentration at 0.5 h ([3]; in vivo, po, 100 mg/kg): 8200 ng/mL
concentration at 0.75 h ([3]; in vivo, po, 100 mg/kg): 6100 ng/mL
concentration at 1 h ([3]; in vivo, po, 100 mg/kg): 7900 ng/mL
concentration at 2 h ([3]; in vivo, po, 100 mg/kg): 2800 ng/mL

SMILES: C[C@@H](O)[C@H]1C(=O)N2C(C(=O)O)=C(SCCN)C[C@H]12 [Thienamycin]
antibacterial activity (bacteria [1]): highly potent broad-spectrum antibiotic

SMILES: O=C(O)C1C(=CCO)OC2CC(=O)N21 (stereo not drawn) [clavulinic acid]
antibacterial activity (bacteria [1]): low order of antibacterial activity
effect on in vitro and in vivo activity of some penicillins and cephalosporins (bacteria [5]): enhances the in vitro and in vivo activity of some penicillins and cephalosporins
β-lactamase inhibition (β-lactamases): inhibits the action of certain β-lactamases

SMILES: CC1=C(C(=O)O)N2C(=O)C[C@H]2S1 [d-2-methylpenem-3-carboxylic acid, (+)-2-methylpenem-3-carboxylic Acid]
MIC (Ps. aeruginosa A-21213): 63 µg/mL (≈ 340 µM)
MIC (K. pneumoniae A-20468): > 125 µg/mL
M.I.C. (Ps. aeruginosa A-9843A): 32 meg./ml.
M.I.C. (Pr. rettgeri A-21205): 4 meg./ml.

SMILES: CC1=C(C(=O)O)N2C(=O)C[C@H]2S1 [l-2-methylpenem-3-carboxylic acid, (-)-2-methylpenem-3-carboxylic Acid]
M.I.C. (Ps. aeruginosa A-21213; Ps. aeruginosa A-21213, overnight): > 125 meg./ml.
M.I.C. (Pr. morganii A-15153; Pr. morganii A-15153, overnight): > 125 meg./ml.
M.I.C. (Ent. cloacae A-9659; Ent. cloacae A-9659, overnight): > 125 meg./ml.
M.I.C. (Str. faecalis A-20688; Str. faecalis A-20688, overnight): 125 meg./ml.
M.I.C. (E. coli A-15119; E. coli A-15119, overnight): > 125 meg./ml.
M.I.C. (K. pneumoniae A-20468; overnight): > 125 meg./ml.
M.I.C. (Ps. aeruginosa A-9843A): > 125 meg./ml.
M.I.C. (Ser. marcescens A-20019; Ser. marcescens A-20019, overnight): > 125 meg./ml.
M.I.C. (Ent. cloacae A-9656; Ent. cloacae A-9656, overnight): > 125 meg./ml.
M.I.C. [2]: > 125 meg./ml.
M.I.C. (E. coli A-20341-1; E. coli A-20341-1, overnight): > 125 meg./ml.
M.I.C. (Pr. mirabilis A-9900; Pr. mirabilis A-9900, overnight): > 125 meg./ml.
M.I.C. (Pr. rettgeri A-21205): > 125 meg./ml.
M.I.C. (Pr. vulgaris A-9716; Pr. vulgaris A-9716, overnight): > 125 meg./ml.
M.I.C. [4]: > 125 meg./ml.
M.I.C. (K. pneumoniae A-15130; K. pneumoniae A-15130, overnight): > 125 meg./ml.
